According to patent publication US9593136B2 (priority 2011, dated 2017):
Read-outs that look alike come from different tables or passages of the source.

How the values were obtained:
[1] = system: Acinetobacter; experiment: microbe, parasite or virus in culture; assay type: cell-based; conditions: for MIC: Acinetobacter, read-out: MIC Acinetobacter
[2] = system: E. coli k12; experiment: microbe, parasite or virus in culture; assay type: cell-based; conditions: for MIC: Escherichia coli, K12, read-out: MIC E. coli k12
[3] = system: E. coli tolc; experiment: microbe, parasite or virus in culture; assay type: cell-based; conditions: for MIC: Escherichia coli, read-out: MIC E. coli tolc
[4] = system: B. anthracis; experiment: microbe, parasite or virus in culture; assay type: cell-based, Bacillus anthracis; conditions: for MIC: Bacillus anthracis, read-out: MIC B. anthracis
[5] = system: E. faecalis; experiment: microbe, parasite or virus in culture; assay type: cell-based; conditions: for MIC: Enterococcus faecalis, read-out: MIC E. faecalis
[6] = system: S. aureus (MSSA); experiment: microbe, parasite or virus in culture; assay type: cell-based; conditions: for MIC: Staphylococcus aureus, MSSA, read-out: MIC S. aureus (MSSA)
[7] = system: MRSA NRS 70; experiment: microbe, parasite or virus in culture; assay type: cell-based, S. aureus; conditions: for MIC: Staphylococcus aureus
[8] = system: Mtb H37Rv (ATCC 27294); experiment: microbe, parasite or virus in culture; assay type: cell-based, Mycobacterium tuberculosis; conditions: for MIC: Mycobacterium tuberculosis
[9] = system: Klebsiella; experiment: MIC against Klebsiella; assay type: cell-based; conditions: Table 1
Description: (§1) The following compounds have been synthesized and tested for their activities against bacteria (Table 1) and their abilities to inhibit Dxr (Table 2). MIC is determined as described in Yendapally et al. (Journal of Medicinal Chemistry 2008, 51, 1487); and IC50 is determined as described in Henriksson et al. (Journal of Biological Chemistry 2007, 282, 19905).

[10] = system: P. aeruginosa; experiment: MIC against P. aeruginosa; assay type: cell-based; conditions: Pseudomonas aeruginosa; Table 1
Description: as §1

[11] = system: S. pneumonia; experiment: MIC against S. pneumonia; assay type: cell-based; conditions: Table 1
Description: as §1

[12] = target: M. tuberculosis Dxr (Mycobacterium tuberculosis, UniProt P9WNS1); experiment: biochemical; conditions: IC50 (μM)
[13] = read-out: Mtb MIC (ug/mL) (7H9)
[14] = read-out: Mtb MIC (ug/mL) (GAST)
[15] = read-out: MIC M. tuberculosis (H37Rv)

M. tuberculosis Dxr, sequence (P9WNS1 whole entry, looked up): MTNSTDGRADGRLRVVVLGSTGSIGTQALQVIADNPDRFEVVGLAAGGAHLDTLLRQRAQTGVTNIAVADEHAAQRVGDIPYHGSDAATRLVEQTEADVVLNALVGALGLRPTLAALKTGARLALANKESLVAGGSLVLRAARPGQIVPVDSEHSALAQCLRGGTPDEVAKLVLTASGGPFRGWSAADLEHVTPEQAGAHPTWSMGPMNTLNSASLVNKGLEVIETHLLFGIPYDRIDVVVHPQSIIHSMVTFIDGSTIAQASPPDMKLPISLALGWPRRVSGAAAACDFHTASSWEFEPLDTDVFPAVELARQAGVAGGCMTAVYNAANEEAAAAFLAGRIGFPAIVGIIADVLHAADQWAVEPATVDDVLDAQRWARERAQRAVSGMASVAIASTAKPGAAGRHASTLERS

CC(=O)N(O)CCCP(=O)(OC(C)OC(=O)c1ccccc1)OC(C)OC(=O)c1ccccc1 (centres unmarked) [Compound 27]
100 to 200 µg/mL: MIC M. tuberculosis (H37Rv) [8]
50 µg/mL: MIC E. coli k12 [2] | MIC E. coli tolc [3] | MIC B. anthracis [4]
100 µg/mL: MIC Acinetobacter [1]
>200 µg/mL: MIC E. faecalis [5] | MIC S. aureus (MSSA) [6] | MIC S. aureus (MRSA) [7]

CCOP(=O)(CCCN(O)C(=O)c1ccccc1)OCC [ERJ 58]
> 200 µg/mL: MIC [1] | MIC [2] | MIC [3] | MIC [9] | MIC [10] | MIC [11] | MIC [4] | MIC [5] | MIC [6] | MIC ([7]; read-out: MIC MRSA NRS 70) | MIC ([8]; read-out: MIC H37 Rv)
31.2 µg/mL: MIC [8, 14]
> 500 µg/mL: MIC [8, 13]

CCOP(=O)(CCCN(O)C(=O)CCc1ccccc1)OCC [ERJ 70]
3.12 µg/mL: MIC [8, 13]
> 200 µg/mL: MIC [1] | MIC [2] | MIC [3] | MIC [9] | MIC [10] | MIC [11] | MIC [4] | MIC [5] | MIC [6] | MIC ([7]; read-out: MIC MRSA NRS 70) | MIC ([8]; read-out: MIC H37 Rv) | MIC [8, 14]

CCOP(=O)(CCCN(O)C(=O)CCCc1ccccc1)OCC [ERJ 79]
100 µg/mL: MIC [6]
3.12 µg/mL: MIC [8, 13]
> 200 µg/mL: MIC [1] | MIC [2] | MIC [3] | MIC [9] | MIC [10] | MIC [11] | MIC [4] | MIC [5] | MIC ([8]; read-out: MIC H37 Rv) | MIC [8, 14]
50 µg/mL: MIC ([7]; read-out: MIC MRSA NRS 70)

CCOP(=O)(CCCN(O)C(=O)Cc1ccccc1)OCC [ERJ 91]
100 µg/mL: MIC [6]
> 200 µg/mL: MIC [1] | MIC [2] | MIC [3] | MIC [9] | MIC [10] | MIC [11] | MIC [4] | MIC [5] | MIC ([8]; read-out: MIC H37 Rv)
50 µg/mL: MIC ([7]; read-out: MIC MRSA NRS 70)

CCOP(=O)(CCCN(O)C(=O)c1cccc2ccccc12)OCC [ERJ 93]
200 µg/mL: MIC [4] | MIC [5]
> 200 µg/mL: MIC [1] | MIC [2] | MIC [3] | MIC [9] | MIC [10] | MIC [11] | MIC ([8]; read-out: MIC H37 Rv)
50 µg/mL: MIC ([7]; read-out: MIC MRSA NRS 70)
100 µg/mL: MIC [6]

CCOP(=O)(CCCN(O)C(=O)c1ccc2ccccc2c1)OCC [ERJ 96]
> 200 µg/mL: MIC [1] | MIC [2] | MIC [3] | MIC [9] | MIC [10] | MIC [11] | MIC [4] | MIC [5] | MIC [6] | MIC ([7]; read-out: MIC MRSA NRS 70) | MIC ([8]; read-out: MIC H37 Rv)

CCOP(=O)(CCCN(O)C(=O)c1ccc(-c2ccccc2)cc1)OCC [ERJ 104]
> 200 µg/mL: MIC [1] | MIC [2] | MIC [9] | MIC [10] | MIC [11] | MIC [4] | MIC [5] | MIC ([8]; read-out: MIC H37 Rv)
100 µg/mL: MIC [3] | MIC [6] | MIC ([7]; read-out: MIC MRSA NRS 70)

CC(=O)N(O)CCCP(=O)(O)O [FR900098, reference compound]
12.5 µg/mL: MIC [3]
200 µg/mL: MIC [2]
2 µM: IC50 [12]
> 200 µg/mL: MIC [5] | MIC [6] | MIC ([8]; read-out: Mtb MIC (ug/mL))
> 500 µg/mL: MIC [8, 15]
inactive: antitubercular activity (in words) [8]
50 µg/mL: MIC [1] | MIC [4] | MIC ([7]; read-out: MIC S. aureus (MRSA))

O=CN(O)CCCP(=O)(O)O [Fosmidomycin, reference compound]
12.5 µg/mL: MIC [2]
100 µg/mL: MIC [1]
0.78 lg/mL: activity against B. anthracis (MIC) [4]
0.78 µg/mL: MIC [4]
> 500 µg/mL: MIC ([8]; read-out: MIC 7H9 (μg/mL)) | MIC ([8]; read-out: MIC GAST/Fe (μg/mL)) | MIC [8, 15]
6.25 µg/mL: MIC [3]
200 µg/mL: MIC ([7]; read-out: MIC S. aureus (MRSA))
> 200 µg/mL: MIC [5] | MIC [6]

CCOP(=O)(CCCN(OCc1ccccc1)C(C)=O)OCC [GSJ 20 (Rotamer B)]
> 200 µg/mL: MIC [1] | MIC [2] | MIC [3] | MIC [9] | MIC [10] | MIC [11] | MIC [4] | MIC [5] | MIC [6] | MIC ([7]; read-out: MIC MRSA NRS 70) | MIC ([8]; read-out: MIC H37 Rv) | MIC ([8]; read-out: Mtb MIC (ug/mL))

CCOP(=O)(CCCN(OCCc1ccccc1)C(C)=O)OCC [GSJ 25]
> 200 µg/mL: MIC [1] | MIC [2] | MIC [3] | MIC [9] | MIC [10] | MIC [11] | MIC [4] | MIC [5] | MIC [6] | MIC ([7]; read-out: MIC MRSA NRS 70) | MIC ([8]; read-out: MIC H37 Rv) | MIC ([8]; read-out: Mtb MIC (ug/mL))

CCOP(=O)(CCCN(OCCCCc1ccccc1)C(C)=O)OCC [GSJ 26]
200 µg/mL: MIC [3] | MIC [5] | MIC ([7]; read-out: MIC MRSA NRS 70)
100 µg/mL: MIC [6]
Some act 200: MIC H37 Rv [8]
SA 200: Mtb MIC (ug/mL) [8]
> 200 µg/mL: MIC [1] | MIC [2] | MIC [9] | MIC [10] | MIC [11] | MIC [4]

CCOP(=O)(CCCN(OCCCc1ccccc1)C(C)=O)OCC [GSJ 27]
> 200 µg/mL: MIC [1] | MIC [2] | MIC [3] | MIC [9] | MIC [10] | MIC [11] | MIC [4] | MIC [5] | MIC [6] | MIC ([7]; read-out: MIC MRSA NRS 70) | MIC ([8]; read-out: MIC H37 Rv) | MIC ([8]; read-out: Mtb MIC (ug/mL))

CCOP(=O)(CCCN(OC(C)c1ccccc1)C(C)=O)OCC (centres unmarked) [GSJ 28]
> 200 µg/mL: MIC [1] | MIC [2] | MIC [3] | MIC [9] | MIC [10] | MIC [11] | MIC [4] | MIC [5] | MIC ([8]; read-out: MIC H37 Rv) | MIC ([8]; read-out: Mtb MIC (ug/mL))
50 µg/mL: MIC ([7]; read-out: MIC MRSA NRS 70)
100 µg/mL: MIC [6]

CCOP(=O)(CCCN(OCCCc1ccc(OC)cc1)C(C)=O)OCC [GSJ 30]
> 200 µg/mL: MIC [1] | MIC [2] | MIC [3] | MIC [9] | MIC [10] | MIC [11] | MIC [4] | MIC [5] | MIC [6] | MIC ([7]; read-out: MIC MRSA NRS 70) | MIC ([8]; read-out: MIC H37 Rv) | MIC ([8]; read-out: Mtb MIC (ug/mL))

CCOP(=O)(CCCN(OCCc1ccc(OC)cc1)C(C)=O)OCC [GSJ 31]
50 µg/mL: MIC ([7]; read-out: MIC MRSA NRS 70)
> 200 µg/mL: MIC [1] | MIC [2] | MIC [3] | MIC [9] | MIC [10] | MIC [11] | MIC [4] | MIC [5] | MIC ([8]; read-out: MIC H37 Rv) | MIC ([8]; read-out: Mtb MIC (ug/mL))
200 µg/mL: MIC [6]
